Test results taken from ChEMBL document CHEMBL4673266, “Sulfonamide antibiotics inhibit RNAi by binding to human Argonaute protein 2 PAZ” (Bioorg Med Chem Lett, 2020).
Calls of active or inactive are those of the source. No cut-off for these calls is given here.

Experiments:
Protein argonaute-2 [1] = target: T1, Protein argonaute-2 (Homo sapiens, UniProt Q9UKV8); experiment: Binding affinity to human Argonaut protein 2 PAZ domain assessed as change in entropy by isothermal titration microcalorimetry
T1 sequence (Q9UKV8 whole entry, the tested form may be a part): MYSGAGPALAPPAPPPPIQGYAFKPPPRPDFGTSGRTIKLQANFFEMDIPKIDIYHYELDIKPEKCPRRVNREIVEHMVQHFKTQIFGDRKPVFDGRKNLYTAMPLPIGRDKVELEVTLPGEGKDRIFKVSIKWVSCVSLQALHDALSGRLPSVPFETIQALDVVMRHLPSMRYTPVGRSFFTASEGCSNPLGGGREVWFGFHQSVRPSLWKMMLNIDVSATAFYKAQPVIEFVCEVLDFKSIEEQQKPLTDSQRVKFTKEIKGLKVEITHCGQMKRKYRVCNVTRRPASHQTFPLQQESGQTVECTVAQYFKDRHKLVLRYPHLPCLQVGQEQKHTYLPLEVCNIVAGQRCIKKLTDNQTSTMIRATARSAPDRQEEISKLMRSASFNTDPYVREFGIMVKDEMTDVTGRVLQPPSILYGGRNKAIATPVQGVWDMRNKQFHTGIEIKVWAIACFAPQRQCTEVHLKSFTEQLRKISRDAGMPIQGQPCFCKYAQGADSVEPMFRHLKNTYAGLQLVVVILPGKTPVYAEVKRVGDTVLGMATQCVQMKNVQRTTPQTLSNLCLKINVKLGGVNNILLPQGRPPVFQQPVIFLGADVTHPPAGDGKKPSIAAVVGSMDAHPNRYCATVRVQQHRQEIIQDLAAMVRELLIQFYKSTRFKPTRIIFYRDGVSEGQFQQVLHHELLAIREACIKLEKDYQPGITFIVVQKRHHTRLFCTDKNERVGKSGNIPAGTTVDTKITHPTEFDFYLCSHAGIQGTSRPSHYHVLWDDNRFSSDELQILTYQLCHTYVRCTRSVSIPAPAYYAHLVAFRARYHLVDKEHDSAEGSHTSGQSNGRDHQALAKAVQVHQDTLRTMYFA

HeLa [2] = experiment: Inhibition of RNAi in human Hela cells expressing Renilla/firefly luciferase genes and siRNA assessed as siRNA-mediated gene silencing activity at 100 to 500 nM by dual luciferase assay relative to control; type: cell-based; conditions: dose 100-500 nM
Protein argonaute-2 [3] = target: T1, Protein argonaute-2; experiment: Binding affinity to human Argonaut protein 2 PAZ domain assessed as dissociation constant by using isothermal titration microcalorimetry
Protein argonaute-2 [4] = target: T1, Protein argonaute-2; experiment: Binding affinity to human Argonaut protein 2 PAZ domain assessed as association constant by using isothermal titration microcalorimetry
Protein argonaute-2 [5] = target: T1, Protein argonaute-2; experiment: Binding affinity to human Argonaut protein 2 PAZ domain assessed as change in enthalpy by isothermal titration microcalorimetry
HeLa [6] = experiment: Inhibition of RNAi in human Hela cells expressing Renilla/firefly luciferase genes and siRNA assessed as siRNA-mediated gene silencing activity at 500 nM by dual luciferase assay relative to control; type: cell-based

Row | Compound | deltaS (Protein argonaute-2 [1]) | inhibition (HeLa [2]) | Kd (Protein argonaute-2 [3]) | Ka (Protein argonaute-2 [4]) | deltaH (Protein argonaute-2 [5]) | inhibition (HeLa [6])
1 | Nc1ccc(S(N)(=O)=O)cc1 | 15.7 cal/mol.K | inactive | – | – | – | –
2 | [H]/N=C(/N)NS(=O)(=O)c1ccc(N)cc1 [SULFAGUANIDINE] | – | – | 49 µM | – | – | –
3 | N=C(N)NS(=O)(=O)c1ccc(N)cc1 | 15.6 cal/mol.K | inactive | – | 2 10^4/M | -1.5 kcal/mol | –
4 | Cc1cc(NS(=O)(=O)c2ccc(N)cc2)nc(C)n1 [SULFISOMIDINE] | 19.2 cal/mol.K | Dose-dependent effect | 4.3 µM | 23 10^4/M | -1.5 kcal/mol | Active
5 | O=c1ccn([C@@H]2O[C@H](COP(=O)(O)O)[C@@H](O)[C@H]2O)c(=O)[nH]1 | 18.2 cal/mol.K | – | – | 6.6 10^4/M | -0.9 kcal/mol | –
